Experimental data taken from PubChem BioAssay AID248 (DTP/NCI, 2004).
Values joined by “and” are separate entries in the source; they are usually repeats but may differ in a detail not shown here. Equal entries are not always repeated. Toxic doses and inconclusive results are not listed. No stated cut-off is given here; in the data, active means T/C of 150% or more; inactive means T/C below 125%.

Tested on: L1210 leukemia ip in BDF1 mice, survival T/C
Assay: NCI In Vivo Anticancer Drug Screen. Data for tumor model L1210 Leukemia (intraperitoneal) in B6D2F1 (BDF1) mice
Details: endpoint: mean survival time, higher = longer survival
How it was run: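 Tumor cells were implanted, animals were treated, and survival was followed. The result divides the treated measurement by the vehicle-control measurement.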

[1] = dose: 100.0 mg/kg/injection, schedule: Q04DX003 (ip), vehicle: Klucel (hydroxypropylcellulose) (HPC)
[2] = dose: 100.0 mg/kg/injection, schedule: Q01DX009 (ip), vehicle: saline
[3] = dose: 200.0 mg/kg/injection, schedule: Q01DX009 (ip), vehicle: saline
[4] = dose: 400.0 mg/kg/injection, schedule: Q01DX009 (ip), vehicle: saline
[5] = dose: 100.0 mg/kg/injection, schedule: Q04DX003 (ip), vehicle: saline
[6] = dose: 200.0 mg/kg/injection, schedule: Q04DX003 (ip), vehicle: saline
[7] = dose: 100.0 mg/kg/injection, schedule: Q01DX009 (ip), vehicle: saline with Tween-80
[8] = dose: 100.0 mg/kg/injection, schedule: Q04DX003 (ip), vehicle: saline with Tween-80
[9] = dose: 200.0 mg/kg/injection, schedule: Q01DX009 (ip), vehicle: saline with Tween-80
[10] = dose: 200.0 mg/kg/injection, schedule: Q04DX003 (ip), vehicle: saline with Tween-80
[11] = dose: 400.0 mg/kg/injection, schedule: Q04DX003 (ip), vehicle: saline with Tween-80
[12] = dose: 100.0 mg/kg/injection, schedule: Q04DX002 (ip), vehicle: Klucel (hydroxypropylcellulose) (HPC)
[13] = dose: 200.0 mg/kg/injection, schedule: Q04DX002 (ip), vehicle: Klucel (hydroxypropylcellulose) (HPC)
[14] = dose: 400.0 mg/kg/injection, schedule: Q04DX002 (ip), vehicle: Klucel (hydroxypropylcellulose) (HPC)
[15] = dose: 200.0 mg/kg/injection, schedule: Q04DX003 (ip), vehicle: Klucel (hydroxypropylcellulose) (HPC)
[16] = dose: 400.0 mg/kg/injection, schedule: Q04DX003 (ip), vehicle: Klucel (hydroxypropylcellulose) (HPC)
[17] = dose: 400.0 mg/kg/injection, schedule: Q04DX003 (ip), vehicle: saline
[18] = dose: 100.0 mg/kg/injection, schedule: Q01DX009 (ip), vehicle: saline sonified
[19] = dose: 200.0 mg/kg/injection, schedule: Q01DX009 (ip), vehicle: saline sonified
[20] = dose: 100.0 mg/kg/injection, schedule: Q01DX001 (ip), vehicle: saline
[21] = dose: 200.0 mg/kg/injection, schedule: Q01DX001 (ip), vehicle: saline
[22] = dose: 400.0 mg/kg/injection, schedule: Q01DX001 (ip), vehicle: saline

Measured: T/C

CS(=O)(=O)OCCN=C(N)N[N+](=O)[O-]
inactive: dose: 20.0 mg/kg/injection, schedule: Q04DX003 (ip), vehicle: Klucel (hydroxypropylcellulose) (HPC) 95 % of control | dose: 40.0 mg/kg/injection, schedule: Q04DX003 (ip), vehicle: Klucel (hydroxypropylcellulose) (HPC) 95 % of control | dose: 80.0 mg/kg/injection, schedule: Q04DX003 (ip), vehicle: Klucel (hydroxypropylcellulose) (HPC) 97 % of control | [1] 105 % of control

CC(=O)CC(=O)Nc1ccc(C)c(C)c1
inactive: [2] 102 % of control | [3] 102 % of control | [4] 93 % of control

C#CC[N+](C)(C)CC#C
inactive: dose: 50.0 mg/kg/injection, schedule: Q04DX003 (ip), vehicle: saline 102 % of control | [5] 94 % of control | [6] 93 % of control

COc1ccc(OC)c(NC(=O)c2cc3ccccc3cc2OC(=O)Nc2cc(Cl)ccc2OC)c1
inactive: [7] 94 % of control | dose: 100.0 mg/kg/injection, schedule: Q04DX002 (ip), vehicle: saline with Tween-80 103 % of control and 112 % of control | [8] 103 % of control | [9] 98 % of control and 89 % of control | dose: 200.0 mg/kg/injection, schedule: Q04DX002 (ip), vehicle: saline with Tween-80 97 % of control and 87 % of control | [10] 102 % of control | dose: 400.0 mg/kg/injection, schedule: Q01DX009 (ip), vehicle: saline with Tween-80 102 % of control and 89 % of control | dose: 400.0 mg/kg/injection, schedule: Q04DX002 (ip), vehicle: saline with Tween-80 101 % of control and 91 % of control | [11] 97 % of control

O=C(Nc1ccc(Cl)cc1C(=O)c1ccccc1)c1ccc([N+](=O)[O-])cc1
inactive: [12] 89 % of control | [13] 95 % of control | [14] 92 % of control

c1ccc2c(c1)ccc1oc3ccc4ccccc4c3c12
inactive: dose: 18.75 mg/kg/injection, schedule: Q04DX003 (ip), vehicle: Klucel (hydroxypropylcellulose) (HPC) 97 % of control | dose: 37.5 mg/kg/injection, schedule: Q04DX003 (ip), vehicle: Klucel (hydroxypropylcellulose) (HPC) 97 % of control and 98 % of control | dose: 75.0 mg/kg/injection, schedule: Q04DX003 (ip), vehicle: Klucel (hydroxypropylcellulose) (HPC) 101 % of control and 103 % of control | [1] 103 % of control | dose: 150.0 mg/kg/injection, schedule: Q04DX003 (ip), vehicle: Klucel (hydroxypropylcellulose) (HPC) 104 % of control | [15] 97 % of control | [16] 101 % of control

CC(=O)c1ccccc1-n1c(C)ccc1C
inactive: [2] 95 % of control | dose: 100.0 mg/kg/injection, schedule: Q04DX003 (ip), vehicle: saline + alcohol 100 % of control | [3] 98 % of control | dose: 200.0 mg/kg/injection, schedule: Q04DX003 (ip), vehicle: saline + alcohol 100 % of control | [4] 98 % of control | dose: 400.0 mg/kg/injection, schedule: Q04DX003 (ip), vehicle: saline + alcohol 108 % of control

O=C(ONC1CCC(CC2CCCCC2)CC1)c1ccccc1 (stereo unspecified)
inactive: dose: 50.0 mg/kg/injection, schedule: Q01DX009 (ip), vehicle: Klucel (hydroxypropylcellulose) (HPC) 102 % of control | dose: 100.0 mg/kg/injection, schedule: Q01DX009 (ip), vehicle: Klucel (hydroxypropylcellulose) (HPC) 97 % of control | [1] 97 % of control | [15] 89 % of control

OCC(O)C1OC(Oc2ccccc2)C(O)C(O)C1O (stereo unspecified)
inactive: [5] 100 % of control | [6] 98 % of control | [17] 100 % of control

CN(Cc1ccccc1)C(=O)COc1ccc(Cl)c(Cl)c1
inactive: dose: 100.0 mg/kg/injection, schedule: Q01DX001 (ip), vehicle: Klucel (hydroxypropylcellulose) (HPC) 106 % of control | dose: 200.0 mg/kg/injection, schedule: Q01DX001 (ip), vehicle: Klucel (hydroxypropylcellulose) (HPC) 96 % of control | dose: 400.0 mg/kg/injection, schedule: Q01DX001 (ip), vehicle: Klucel (hydroxypropylcellulose) (HPC) 102 % of control

COc1ccc(Br)cc1
inactive: [7] 96 % of control | [1] 100 % of control | [9] 89 % of control | [15] 100 % of control | [16] 103 % of control

CC(=O)Oc1cc2c(cc1OC(C)=O)C(=O)CCC=C2
inactive: dose: 25.0 mg/kg/injection, schedule: Q04DX003 (ip), vehicle: Klucel (hydroxypropylcellulose) (HPC) 104 % of control | dose: 50.0 mg/kg/injection, schedule: Q04DX003 (ip), vehicle: Klucel (hydroxypropylcellulose) (HPC) 106 % of control | [18] 95 % of control | [1] 98 % of control and 115 % of control | [19] 97 % of control | [15] 102 % of control | dose: 400.0 mg/kg/injection, schedule: Q01DX009 (ip), vehicle: saline sonified 99 % of control | [16] 100 % of control

CCCCCCCCCCCCOc1ccc(Br)cc1
inactive: [8] 98 % of control | [10] 92 % of control | [11] 96 % of control

Cc1ccc(S(=O)(=O)OCC2OC(n3ccc(=O)[nH]c3=O)C3OC(C)(C)OC23)cc1 (stereo unspecified)
inactive: dose: 100.0 mg/kg/injection, schedule: Q01DX005 (ip), vehicle: saline 122 % of control

O=c1ccc(=O)n(-c2ccc(Cl)cc2)[nH]1
inactive: dose: 50.0 mg/kg/injection, schedule: Q04DX003 (ip), vehicle: saline with Tween-80 103 % of control | [8] 104 % of control | [10] 98 % of control

COc1ccccc1/C=C/c1ccnc2ccccc12
inactive: [20] 101 % of control | [5] 97 % of control | [21] 102 % of control | [6] 100 % of control | [22] 98 % of control | [17] 93 % of control

c1ccc(NC2=NCCCN2)cc1
inactive: dose: 12.5 mg/kg/injection, schedule: Q01DX001 (ip), vehicle: saline with Tween-80 102 % of control | dose: 25.0 mg/kg/injection, schedule: Q01DX001 (ip), vehicle: saline with Tween-80 97 % of control | dose: 50.0 mg/kg/injection, schedule: Q01DX001 (ip), vehicle: saline with Tween-80 91 % of control

CC(C)OC(=O)Nc1cccc(Cl)c1
inactive: dose: 50.0 mg/kg/injection, schedule: Q01DX009 (ip), vehicle: saline sonified 100 % of control | [18] 101 % of control | dose: 100.0 mg/kg/injection, schedule: Q04DX003 (ip), vehicle: saline sonified 87 % of control | [19] 99 % of control | dose: 200.0 mg/kg/injection, schedule: Q04DX003 (ip), vehicle: saline sonified 94 % of control | dose: 400.0 mg/kg/injection, schedule: Q04DX003 (ip), vehicle: saline sonified 94 % of control

O=C(Nc1ccc(Cl)c(Cl)c1)OCc1cc[n+]([O-])cc1
inactive: [12] 103 % of control | [13] 98 % of control | [14] 106 % of control

COC(=O)c1sc2ccccc2c1C
inactive: dose: 100.0 mg/kg/injection, schedule: Q01DX001 (ip), vehicle: carboxymethylcellulose (CMC) 104 % of control | dose: 200.0 mg/kg/injection, schedule: Q01DX001 (ip), vehicle: carboxymethylcellulose (CMC) 98 % of control | dose: 400.0 mg/kg/injection, schedule: Q01DX001 (ip), vehicle: carboxymethylcellulose (CMC) 98 % of control

CC1Nc2ccccc2NC1C (stereo unspecified)
inactive: [20] 98 % of control

CCOP(=O)(OCC)Oc1cc(C)c(N(C)C)c(C)c1
inactive: dose: 75.0 mg/kg/injection, schedule: Q01DX001 (ip), vehicle: saline 101 % of control | dose: 150.0 mg/kg/injection, schedule: Q01DX001 (ip), vehicle: saline 90 % of control

O=C(N/N=C/C=C/c1ccccc1)[C@H](O)[C@@H](O)C(=O)N/N=C/C=C/c1ccccc1
inactive: [20] 92 % of control | dose: 100.0 mg/kg/injection, schedule: Q01DX009 (ip), vehicle: acetone 90 % of control | [5] 88 % of control | [21] 93 % of control | [6] 88 % of control | [22] 93 % of control | dose: 400.0 mg/kg/injection, schedule: Q01DX009 (ip), vehicle: acetone 92 % of control | [17] 97 % of control

CC(=O)c1c(C)cc(C(C)(C)C)cc1C
inactive: [2] 97 % of control | [5] 105 % of control | [3] 100 % of control | [6] 92 % of control | [4] 108 % of control | [17] 100 % of control

O=[N+]([O-])C12CCCCC1([N+](=O)[O-])CCCC2 (stereo unspecified)
inactive: [5] 103 % of control | [6] 92 % of control | [17] 108 % of control
